{"source": "patent US11046731B2", "about": "“Zinc-binder based EBNA1-specific compounds” (priority 2018, dated 2021)", "key": {"[1]": {"system": "EBV-positive C666-1 xenografts", "test": "C666-1 nude mice xenograft, intratumoral injection", "format": "in vivo, BALB/c nude mice", "details": "18 days"}, "BZLF1 (Zta) and BMRF1": {"system": "BZLF1 (Zta) and BMRF1", "test": "IHC of EBV lytic proteins in C666-1-derived tumor tissues", "format": "in vivo, Epstein-Barr virus"}, "[2]": {"system": "Rta, BMRF1 and gp350/220 in EBV-positive NPC43 cells", "test": "Western blot of EBV lytic proteins", "format": "cell-based, Epstein-Barr virus", "details": "10 μM, 7 days"}, "[3]": {"system": "EBV-positive NPC43, C666-1, Raji cells", "details": "1-20 μM, 5 days"}, "[4]": {"system": "EBV-negative HeLa xenografts", "details": "4 μg/injection every three days, 19 days"}}, "note": "Numbered stars: 1 amine (or outer) side, 2 acyl side, 3 side chain; on linkers, the order of the positions; unused ones are H or OH. Square brackets hold non-standard residues; d marks the D form. Peptide text beside a SMILES is read from it. * marks the point of attachment. X2 = O=C(c1ccc(/C=C/c2ccc(N[*:1])cc2)cc1)[*:2]; X1 = O=C(CN(Cc1ccccn1)Cc1ccccn1)*"}
{"smiles": "CSCC[C@H](NC(=O)[C@H](Cc1ccccc1)NC(=O)[C@H](Cc1ccc(O)cc1)NC(=O)c1ccc(/C=C/c2ccc(NC(=O)CN(Cc3ccccn3)Cc3ccccn3)cc2)cc1)C(=O)N[C@H](C(=O)N[C@@H](Cc1ccccc1)C(=O)O)C(C)C", "note": "[ZRL5P2] (X1-[X2]YFMVF-OH)", "values": [{"measurement": "effect on tumor growth", "setting": "[1]; 4 μg/injection intra-tumoral twice weekly", "result": "did not significantly affect tumor growth"}, {"measurement": "changes in body or organ weights compared to the vehicle control", "setting": "[1]; 4 μg/injection", "result": "did not cause significant changes"}, {"measurement": "tumor areas positive for BMRF1 (IHC)", "setting": "BZLF1 (Zta) and BMRF1", "result": 1.15, "unit": "%"}, {"measurement": "protein levels of Rta and BMRF1", "setting": "[2]", "result": "much weaker than that of ZRL5P4"}, {"measurement": "cytotoxicity / growth inhibition in EBV-positive cells", "setting": "[3]", "result": "least efficient"}, {"measurement": "changes in body weights compared to the control", "setting": "[4]", "result": "did not cause any significant changes"}]}
